In patent EP4737486A1, “HYALURONIC ACID DERIVATIVE, AND PREPARATION METHOD THEREFOR AND USE THEREOF” (priority 2023, dated 2025):

Tested on: blood
Experiment: Anticoagulant activity by prothrombin time in rat blood (CoaguChek X)
Design: species or system male SD rats
Settings: 278 µg/mL in rat blood, n = 3; versus normal saline and no-addition groups
Procedure: The anticoagulant activity of the compound was assessed by measuring prothrombin time according to the reference [Sulakshan Sulakshana et al., Anesth Essays Res., 2021, 15(4): 341-347].
The experimental method and steps are as follows: • 1) About 2 mL of blood was obtained from the abdominal aorta of male SD rats (8 weeks old). One sample corresponded to one rat, and n = 3. • 2) Each substance was added to the blood at a concentration of 27.8 µg/mL or 278 µg/mL, and mixing was performed (generally, 27.8 µg/mL was used for transfusion). • 3) To assess the anticoagulant effect of the samples, prothrombin time was measured using CoaguChek X (Sekisui Medical).
• 1) Normal saline; • 2) Unfractionated heparin (UFH), sodium heparin injection 5000 units/5 mL, Mochida (average molecular weight: 15000); • 3) Fragmin: low molecular weight heparin, average molecular weight of 5000, 5000 units/5 mL; • 4) Arixtra: […], average molecular weight of 1728 (5 mers), 5000 units/5 mL; • 5) No addition.

## CO[C@H]1O[C@H](COS(=O)(=O)O)[C@@H](O[C@@H]2O[C@@H](C(=O)O)[C@@H](O[C@H]3O[C@H](COS(=O)(=O)O)[C@@H](O[C@@H]4O[C@H](C(=O)O)[C@@H](O[C@H]5O[C@H](COS(=O)(=O)O)[C@@H](O)[C@H](O)[C@H]5NS(=O)(=O)O)[C@H](O)[C@H]4O)[C@H](OS(=O)(=O)O)[C@H]3NS(=O)(=O)O)[C@H](O)[C@H]2OS(=O)(=O)O)[C@H](O)[C@H]1NS(=O)(=O)O [Arixtra]
  prothrombin time: significantly longer
